Laboratory results published in ChEMBL document CHEMBL4627358, “A hypoxia-activated antibacterial prodrug” (Bioorg Med Chem Lett, 2020).
Values after ≈ are worked out from the molar mass of the structure shown.

How the values were obtained:
[1] = tested on: Escherichia coli; experiment: Antibacterial activity against Escherichia coli K-12 assessed as bacterial growth inhibition measured after 16 to 20 hrs by CLSI protocol based broth microdilution method; assay type: functional
[2] = tested on: Staphylococcus aureus; experiment: Antibacterial activity against Staphylococcus aureus ATCC 49775 assessed as bacterial growth inhibition measured after 16 to 20 hrs by CLSI protocol based broth microdilution method; assay type: functional

SMILES	MIC [1]	MIC [2]
CCCCCCCCN(Cc1c2ccccc2c(Cl)c2ccccc12)C(=O)C(CCCCNC(=O)OCc1ccc([N+](=O)[O-])cc1)NC(=O)OCc1ccc([N+](=O)[O-])cc1 (centres undefined)	> 256 µg/mL	> 256 µg/mL
CCCCCCCCN(Cc1c2ccccc2c(Cl)c2ccccc12)C(=O)C(N)CCCCN (centres undefined)	4 µg/mL (≈ 8.3 µM)	2 µg/mL (≈ 4.15 µM)
